Data from PubChem BioAssay AID2060483 (Molecular Pharmacology Branch, DTP, NCI, 2025).

Tested on: K24384-001-R-PDC complex spheroids, viability
Test: Anticancer human tumor K24384-001-R-PDC patient-derived pancreatic adenocarcinoma cell line growth inhibition [GQUAD]
Settings: for IC50: curve of first compound; for viability, T/C: stronger effect = lower value
In short: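 Viability of tumor cells grown as complex spheroids with endothelial and stromal cells, exposed to drug combinations. Top concentration at or near clinical Cmax (else 10 microM), diluted in half-log increments.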

[1] = second compound 0.0316 µM, first compound 0.0316 µM
[2] = second compound 0.0316 µM, first compound 0.1 µM
[3] = second compound 0.0316 µM, first compound 0.316 µM
[4] = second compound 0.0316 µM, first compound 1 µM
[5] = second compound 0.0316 µM, first compound 3.16 µM
[6] = second compound 0.0316 µM, first compound 10 µM
[7] = second compound 0.1 µM, first compound 0.0316 µM
[8] = second compound 0.1 µM, first compound 0.1 µM
[9] = second compound 0.1 µM, first compound 0.316 µM
[10] = second compound 0.1 µM, first compound 1 µM
[11] = second compound 0.1 µM, first compound 3.16 µM
[12] = second compound 0.1 µM, first compound 10 µM
[13] = second compound 0.316 µM, first compound 0.0316 µM
[14] = second compound 0.316 µM, first compound 0.1 µM
[15] = second compound 0.316 µM, first compound 0.316 µM
[16] = second compound 0.316 µM, first compound 1 µM
[17] = second compound 0.316 µM, first compound 3.16 µM
[18] = second compound 0.316 µM, first compound 10 µM
[19] = second compound 1 µM, first compound 0.0316 µM
[20] = second compound 1 µM, first compound 0.1 µM
[21] = second compound 1 µM, first compound 0.316 µM
[22] = second compound 1 µM, first compound 1 µM
[23] = second compound 1 µM, first compound 3.16 µM
[24] = second compound 1 µM, first compound 10 µM
[25] = second compound 3.16 µM, first compound 0.0316 µM
[26] = second compound 3.16 µM, first compound 0.1 µM
[27] = second compound 3.16 µM, first compound 0.316 µM
[28] = second compound 3.16 µM, first compound 1 µM
[29] = second compound 3.16 µM, first compound 3.16 µM
[30] = second compound 3.16 µM, first compound 10 µM
[31] = second compound 10 µM, first compound 0.0316 µM
[32] = second compound 10 µM, first compound 0.1 µM
[33] = second compound 10 µM, first compound 0.316 µM
[34] = second compound 10 µM, first compound 1 µM
[35] = second compound 10 µM, first compound 3.16 µM
[36] = second compound 10 µM, first compound 10 µM
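Note: spheroids exposed to compounds for seven days.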

`COc1cccc2c1C(=O)c1c(O)c3c(c(O)c1C2=O)CC(O)(C(=O)CO)CC3OC1CC(N)C(O)C(C)O1` (stereo unspecified) + Cc1[nH]c2ccc(F)cc2c1-c1nc2c3cccnc3c3ncccc3c2[nH]1 was tested, and the IC50 (second compound 0.0316 µM) was 191 nM, the IC50 (second compound 0.1 µM) was 204 nM and the IC50 (second compound 0.316 µM) was 203 nM. For the same molecule, the IC50 (second compound 1 µM) was 219 nM, the IC50 (second compound 3.16 µM) was 126 nM and the IC50 (second compound 10 µM) was 80.1 nM. The viability, T/C [1] was 89.8%, the viability, T/C [2] was 70% and the viability, T/C [3] was 33.1%. For the same molecule, the viability, T/C [4] was 17.6%, the viability, T/C [5] was 5.95% and the viability, T/C [6] was 4.77%. For the same molecule, the viability, T/C [7] was 78.8%, the viability, T/C [8] was 64.8% and the viability, T/C [9] was 39.2%. For the same molecule, the viability, T/C [10] was 25.6%, the viability, T/C [11] was 8.24% and the viability, T/C [12] was 4.61%. The viability, T/C [13] was 74.2%, the viability, T/C [14] was 63.4% and the viability, T/C [15] was 40.9%. It also gave a viability, T/C [16] of 22.4%, a viability, T/C [17] of 6.31% and a viability, T/C [18] of 4.4%. It also gave a viability, T/C [19] of 85.4%, a viability, T/C [20] of 75.3% and a viability, T/C [21] of 32.2%. For the same molecule, the viability, T/C [22] was 27.8%, the viability, T/C [23] was 7.66% and the viability, T/C [24] was 4.24%. It also gave a viability, T/C [25] of 70.6%, a viability, T/C [26] of 55.1% and a viability, T/C [27] of 32%. The viability, T/C [28] was 28%, the viability, T/C [29] was 7.01% and the viability, T/C [30] was 1.96%. For the same molecule, the viability, T/C [31] was 60.5%, the viability, T/C [32] was 49.3% and the viability, T/C [33] was 28.1%. The viability, T/C [34] was 20%, the viability, T/C [35] was 5.65% and the viability, T/C [36] was 1.85%.
For `Nc1ccn(C2OC(CO)C(O)C2(F)F)c(=O)n1` (stereo unspecified) + Cc1[nH]c2ccc(F)cc2c1-c1nc2c3cccnc3c3ncccc3c2[nH]1, the IC50 (second compound 0.0316 µM) was 215 nM, the IC50 (second compound 0.1 µM) was 208 nM and the IC50 (second compound 0.316 µM) was 318 nM. For the same molecule, the IC50 (second compound 1 µM) was 290 nM, the IC50 (second compound 3.16 µM) was 240 nM and the IC50 (second compound 10 µM) was 110 nM. It also gave a viability, T/C [1] of 87.6%, a viability, T/C [2] of 62.5% and a viability, T/C [3] of 44.5%. It also gave a viability, T/C [4] of 30.6%, a viability, T/C [5] of 26.2% and a viability, T/C [6] of 23.2%. It also gave a viability, T/C [7] of 75.7%, a viability, T/C [8] of 66.4% and a viability, T/C [9] of 36.7%. For the same molecule, the viability, T/C [10] was 35.8%, the viability, T/C [11] was 26.4% and the viability, T/C [12] was 19.8%. It also gave a viability, T/C [13] of 71.1%, a viability, T/C [14] of 69.5% and a viability, T/C [15] of 46.9%. It also gave a viability, T/C [16] of 34.8%, a viability, T/C [17] of 27.9% and a viability, T/C [18] of 20.6%. For the same molecule, the viability, T/C [19] was 81.3%, the viability, T/C [20] was 70% and the viability, T/C [21] was 42.5%. For the same molecule, the viability, T/C [22] was 38.8%, the viability, T/C [23] was 33.3% and the viability, T/C [24] was 22.1%. For the same molecule, the viability, T/C [25] was 69.4%, the viability, T/C [26] was 60.9% and the viability, T/C [27] was 41.3%. It also gave a viability, T/C [28] of 43.2%, a viability, T/C [29] of 25.3% and a viability, T/C [30] of 19.7%. It also gave a viability, T/C [31] of 54.9%, a viability, T/C [32] of 52.6% and a viability, T/C [33] of 39.6%. It also gave a viability, T/C [34] of 30.7%, a viability, T/C [35] of 19.8% and a viability, T/C [36] of 15.1%.
`O=c1[nH]cc(F)c(=O)[nH]1` + Cc1[nH]c2ccc(F)cc2c1-c1nc2c3cccnc3c3ncccc3c2[nH]1 showed an IC50 (second compound 0.0316 µM) of 4360 nM, an IC50 (second compound 0.1 µM) of over 10000 nM and an IC50 (second compound 0.316 µM) of 1180 nM. The IC50 (second compound 1 µM) was 3090 nM, the IC50 (second compound 3.16 µM) was 479 nM and the IC50 (second compound 10 µM) was 581 nM. For the same molecule, the viability, T/C [1] was 98.4%, the viability, T/C [2] was 77.9% and the viability, T/C [3] was 76.1%. For the same molecule, the viability, T/C [4] was 55.5%, the viability, T/C [5] was 54.9% and the viability, T/C [6] was 44.4%. The viability, T/C [7] was 88.4%, the viability, T/C [8] was 92.7% and the viability, T/C [9] was 86.8%. For the same molecule, the viability, T/C [10] was 55.6%, the viability, T/C [11] was 62.4% and the viability, T/C [12] was 39.6%. It also gave a viability, T/C [13] of 97%, a viability, T/C [14] of 90.9% and a viability, T/C [15] of 66.3%. For the same molecule, the viability, T/C [16] was 53.3%, the viability, T/C [17] was 43.2% and the viability, T/C [18] was 39.9%. For the same molecule, the viability, T/C [19] was 88.2%, the viability, T/C [20] was 93.1% and the viability, T/C [21] was 66.7%. The viability, T/C [22] was 59.9%, the viability, T/C [23] was 54.8% and the viability, T/C [24] was 36.3%. For the same molecule, the viability, T/C [25] was 69.4%, the viability, T/C [26] was 56.5% and the viability, T/C [27] was 51.9%. The viability, T/C [28] was 53%, the viability, T/C [29] was 35.5% and the viability, T/C [30] was 43%. It also gave a viability, T/C [31] of 65.3%, a viability, T/C [32] of 53.6% and a viability, T/C [33] of 62.3%. For the same molecule, the viability, T/C [34] was 40.7%, the viability, T/C [35] was 33.8% and the viability, T/C [36] was 31.7%.
